Measurements reported in PMC4594923, “Food Polyphenols Fail to Cause a Biologically Relevant Reduction of COX-2 Activity” (PLoS ONE, 2015).
Marks after values point to notes of the source that are not given here.

What was measured:
COX–2 = biological target: T1, COX–2 (Homo sapiens, UniProt P35354); experiment: PGE2 formation in LPS stimulated primary human monocytes (24 h, LC-MS); format: cell-based; conditions: IC50 (95% CI), primary monocytes, LPS stimulated, calculated based on PGE2, n = 3, 24 h
T1 sequence (P35354 18-604): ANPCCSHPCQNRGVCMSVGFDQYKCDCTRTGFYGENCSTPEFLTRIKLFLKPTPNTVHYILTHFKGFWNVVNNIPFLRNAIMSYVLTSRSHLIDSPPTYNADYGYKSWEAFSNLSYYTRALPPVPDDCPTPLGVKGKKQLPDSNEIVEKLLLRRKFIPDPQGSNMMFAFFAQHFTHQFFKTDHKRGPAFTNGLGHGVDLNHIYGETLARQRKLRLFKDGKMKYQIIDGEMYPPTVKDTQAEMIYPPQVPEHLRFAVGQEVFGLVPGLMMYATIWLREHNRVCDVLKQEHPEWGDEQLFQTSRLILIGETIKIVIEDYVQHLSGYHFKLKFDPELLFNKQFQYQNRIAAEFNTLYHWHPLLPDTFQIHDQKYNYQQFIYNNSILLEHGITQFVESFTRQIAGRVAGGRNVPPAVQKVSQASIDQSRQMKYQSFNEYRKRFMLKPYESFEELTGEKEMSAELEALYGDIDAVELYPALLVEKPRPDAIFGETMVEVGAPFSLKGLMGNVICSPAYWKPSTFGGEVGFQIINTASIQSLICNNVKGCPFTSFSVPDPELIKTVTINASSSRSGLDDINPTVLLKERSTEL
Procedure: (§1) The in vitro assays were performed as described [6, 16, 18] and COX metabolites were quantified by LC-MS [18].
(§2) Primary human monocytes were freshly isolated from human blood. Blood was collected from healthy human subjects after written informed consent was obtained. […] After 24 h, the supernatant was sampled for LC-MS and cells were collected for the COX–2 expression analysis by Western Blotting.
(§3) GraphPad Prism 5.0 (GraphPad Software, San Diego, USA) was used for data analysis, the fitting of dose response curves and calculation of the IC50 values. Statistical differences were determined by Dunnetts test (LPS vs. other groups).

ovine recombinant COX–1 = biological target: T2, ovine recombinant COX–1 (Ovis aries, UniProt P05979); experiment: cell-free COX–1 enzyme assay (PGE2 formation, LC-MS); format: biochemical; set-up: purchased Cayman Chemicals/ Biomol, Hamburg, Germany
T2 sequence (P05979 25-600): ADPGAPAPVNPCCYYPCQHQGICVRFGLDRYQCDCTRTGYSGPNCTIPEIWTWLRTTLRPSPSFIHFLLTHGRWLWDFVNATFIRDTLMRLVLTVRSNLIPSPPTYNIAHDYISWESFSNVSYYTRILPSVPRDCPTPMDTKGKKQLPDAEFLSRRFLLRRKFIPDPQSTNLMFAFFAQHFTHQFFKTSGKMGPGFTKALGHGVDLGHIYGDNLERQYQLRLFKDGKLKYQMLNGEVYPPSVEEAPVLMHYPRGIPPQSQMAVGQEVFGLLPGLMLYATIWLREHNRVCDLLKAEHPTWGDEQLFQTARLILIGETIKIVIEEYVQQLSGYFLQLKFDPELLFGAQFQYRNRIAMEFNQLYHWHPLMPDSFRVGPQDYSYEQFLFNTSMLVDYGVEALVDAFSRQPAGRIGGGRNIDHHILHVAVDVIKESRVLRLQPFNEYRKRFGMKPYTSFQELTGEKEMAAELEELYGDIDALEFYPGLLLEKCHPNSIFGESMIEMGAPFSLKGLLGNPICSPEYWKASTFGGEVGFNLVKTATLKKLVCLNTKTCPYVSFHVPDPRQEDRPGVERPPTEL
Procedure: as §1, §2, §3

[1] = test system: arachidonic acid (AA) cascade; experiment: liver tissue oxylipin/PG levels in LPS induced sepsis in mice; format: in vivo, C57BL/6N mice; conditions: liver tissue 24 h after LPS treatment;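 also: male C57BL/6N mice pretreated i.p. with polyphenols at 100 mg/kg bw or vehicle before LPS, liver oxylipins measured by LC-MS after solid-phase extraction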
Source text: Twelve week old male C57BL/6N mice (Charles River, Sulzfeld, Germany) were used for all experiments. C57BL/6 male mice (H2^b, 11–13 weeks of age) were obtained from Charles River (Sulzfeld, Germany). Animals were cared for in accordance with the institution’s guidelines for experimental animals and with the guidelines of the American Physiological Society. […] Mice were monitored closely and if they appeared compromised (i.e. inactivity, no intake of food or water) after compound or LPS injection the experiment was terminated.
Oxylipin levels were analyzed in plasma and tissues by LC-MS following SPE extraction of 200 μl plasma or tissue homogenate (50 mg) on Chromabond C18 ec cartridges (Machery-Nagel, Düren, Germany) [19].
as §3

## O=c1c(-c2ccc(O)cc2)coc2cc(O)cc(O)c12 [Genistein, genistein]
COX–2
  IC50: 7.4 µM
Ovine recombinant COX–1
  effect on COX–1 dependent PGE2 formation, cell-free enzyme assay: no effect
Ovine recombinant COX–1; calculated based on PGE2, n = 3
  IC50 (95% CI), COX–1 enzyme assay: no effect (up to 30 μM)
[1]; mean
  4,5-DiHDPE concentration: 64 nM
  4-HDHA concentration: 14 nM
  5(6)-EpETrE concentration: 90 nM
  5,6-DiHETE concentration: < 0.30 nM
  5,6-DiHETrE concentration: 6.3 nM
  5-HEPE concentration: 2.7 nM
  5-HETE concentration: 2.7 nM
  5-iPF2α concentration: < 1.0 nM
  5-oxo-ETE concentration: 19 nM
  6-keto-PGF1α concentration: 74 nM
  7,8-DiHDPE concentration: 6.3 nM
  7-HDHA concentration: 4.4 nM
  8(9)-EpETE concentration: 2.5 nM
  8(9)-EpETrE concentration: 20 nM
  8,9-DiHETE concentration: 2.6 nM
  8,9-DiHETrE concentration: 12 nM
  8,15-DiHETE concentration: 0.88 nM
  8-HDHA concentration: 25^* nM
  8-HEPE concentration: 1.2 nM
  8-HETE concentration: 10 nM
  8-iPF2α concentration: 3.0^* nM
  9(10)-EpODE concentration: 12 nM
  9(10)-EpOME concentration: 130 nM
  9(10)-Epoxystearic acid concentration: 82 nM
  9,10,13-TriHOME concentration: 8.6^* nM
  9,10-DiHODE concentration: 7.6 nM
  9,10-DiHOME concentration: 82 nM
  9,10-Dihydroxystearic acid concentration: 64 nM
  9,12,13-TriHOME concentration: 64 nM
  9-HETE concentration: 6.2 nM
  9-HODE concentration: 550 nM
  9-HOTrE concentration: 9.9 nM
  9-oxo-ODE concentration: 160 nM
  10(11)-EpDPE concentration: 33^* nM
  10,11-DiHDPE concentration: 11 nM
  10-HDHA concentration: 7.6 nM
  11(12)-EpETE concentration: 5.1^† nM
  11(12)-EpETrE concentration: 51 nM
  11,12-DiHETE concentration: 2.9 nM
  11,12-DiHETrE concentration: 22 nM
  11-HDHA concentration: 7.0 nM
  11-HETE concentration: 35 nM
  12(13)-EpODE concentration: 5.7 nM
  12(13)-EpOME concentration: 110 nM
  12,13-DiHODE concentration: 5.7 nM
  12,13-DiHOME concentration: 210 nM
  12-HEPE concentration: 39 nM
  12-HETE concentration: 150 nM
  13(14)-EpDPE concentration: 27^* nM
  13,14-DiHDPE concentration: 15 nM
  13,14-dihydro-15-keto-PGE1 concentration: 0.61 nM
  13,14-dihydro-15-keto-PGF2α concentration: 8.2^* nM
  13-HDHA concentration: 16^† nM
  13-HODE concentration: 530 nM
  13-HOTrE concentration: 18 nM
  13-oxo-ODE concentration: 20 nM
  14(15)-EpETE concentration: 3.3 nM
  14(15)-EpETrE concentration: 44^* nM
  14,15-DiHETE concentration: 8.6 nM
  14,15-DiHETrE concentration: 62 nM
  14-HDHA concentration: 97 nM
  15(16)-EpODE concentration: 27 nM
  15(S)-HETrE concentration: 14 nM
  15,16-DiHODE concentration: 63 nM
  15-HEPE concentration: 4.0 nM
  15-HETE concentration: 40 nM
  15-oxo-ETE concentration: 5.8 nM
  16(17)-EpDPE concentration: 27^* nM
  16,17-DiHDPE concentration: 35 nM
  16-HDHA concentration: 8.1^* nM
  17(18)-EpETE concentration: 4.6 nM
  17,18-DiHETE concentration: 19 nM
  17-HDHA concentration: 25 nM
  18-HEPE concentration: 4.6 nM
  19(20)-EpDPE concentration: 40^* nM
  19,20-DiHDPE concentration: 170 nM
  20-HDHA concentration: 27^* nM
  20-HEPE concentration: 22 nM
  20-HETE concentration: 6.3 nM
  EKODE concentration: 40 nM
  PGD1 concentration: 2.3 nM
  PGD2 concentration: 42 nM
  PGE1 concentration: 3.7 nM
  PGE2 concentration: 21 nM
  PGF1α concentration: 6.9 nM
  TXB2 concentration: 31 nM
  TxB3 concentration: 1.2 nM
  dihomo-PGF2α concentration: 5.3 nM
[1]; mean (first listing, r6)
  PGF2α concentration: 57 nM
[1]; mean (second listing, r9)
  PGF2α concentration: 57 nM
